These results are taken from ChEMBL document CHEMBL1136406, “Amide analogues of TSA: synthesis, binding mode analysis and HDAC inhibition” (Bioorg Med Chem Lett, 2003).

This assay deals with Histone deacetylase.

Description: Inhibitory activity against histone deacetylase (HDAC)

By IC50 is commonly meant the concentration that inhibits the measured activity by half. The low end stands for higher potency, the high end for lower potency. In the case of `C[C@H](/C=C/C=C/C(=O)NO)NC(=O)c1ccc(N(C)C)cc1`, the IC50 came out at 12187 nM.

`CN(C)c1ccc(C(=O)NCCCCCC(=O)NO)cc1` registered an IC50 of 152 nM.

In turn, `C[C@H](CCCCC(=O)NO)NC(=O)c1ccc(N(C)C)cc1` gave a half-inhibitory concentration (IC50) of 359 nM.
